Experimental findings from patent publication US12084434B2 (Scorpion Therapeutics, Inc., priority 2021, dated 2024) are described below.

One assay has as its system T47D pAKT (S473), PI3Kα H1047R mutation present. The assay can be described thus: HTRF pAKT-T47D.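 Note: assay medium was RPMI with 10% FBS and 0.2 units/ml bovine insulin, without phenol red.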 The note with it: Homo sapiens, T47D, 1 h, read-out: T47D pAKT IC50 (nM), T47D.1 cells, pAKT (S473) HTRF, 1 hour. (Time-resolved FRET reads energy transfer from a long-lived donor to a nearby acceptor.)
Procedure: Homogenous Time-Resolved Fluorescence (HTRF)—pAKT-T47D
Compounds were assayed using homogeneous time-resolved fluorescence (HTRF).
Gibco RPMI 1640 Medium, no phenol red; Gibco RPMI 1640 Medium; Gibco Trypsin-EDTA (0.5%), no phenol red; Gibco DPBS; Trypan blue solution 0.4% (Corning); Avantor Seradigm Premium Grade Fetal Bovine Serum (FBS); Greiner 784080-384 well TC treated white plates; pAKT (Ser473) HTRF; Gibco Insulin, human recombinant, zinc solution; Gibco Recovery Cell Culture Freezing Medium; Countess II FL Automated Cell Counter (ThermoFisher); Countess II Slides (ThermoFisher); Microscope; and PHERAstar FSX Microplate Reader (BMG LABTECH, Inc.).
The scinamic cell line ID was T47D.1, the HTRF detection was pAKT (S473), a PI3Kα H1047R mutation was present, the seeding density was 5000, the timepoint was 1 hour, and the medium used was RPMI+10% FBS (no phenol red)+0.2 units/ml bovine insulin.
• The cell density was not permitted to reach 100% confluence. The cells were split 1:5 when they reached ˜80% confluence. • Cells were split twice a week (Mon and Fri). • Cells over passage 18 were not used (˜2 months of maintenance). • Antibiotics were not used for tissue culture maintenance or assays. […] Protocol Day1
The procedure was as follows: • 1. Prepared ARP: • a. Stamped 12.5 nL from 10 μmM source plate to destination plate using Echo. Sealed plate immediately and froze at −20° C. if it was not used on the same day. • b. If a frozen ARP was used, the plate was thawed and spun at 1000 rpm×1 min. • 2. Preparation of cells (adherent): • a. Aspirated media from cells. Washed cells with sterile 1XPBS. Aspirated PBS and added appropriate amount of Trypsin. • b. Once cells were fully trypsinized, added appropriate media to resuspend cells. Transferred cells to a 15 mL or 50 mL conical tube. • c. Counted cells on the Countess II Cell Counter. • 3. Plating of cells: • a. Prepared cells at appropriate plating density. Dispensed 12 μL of diluted cells per well of a Greiner 784080-384 well TC treated white plate using a Multidrop Combi to columns 1-23. Added 12 uL of appropriate phenol free media only to column 24. • b. Placed plates in 37° C. tissue culture incubator for appropriate treatment time (refer to “Assay” table). • 4. Prepared HTRF Lysis Buffer • a. Calculate the amount of HTRF lysis buffer master mix needed to perform the desired experiments plus any extra dead volume required for dispensing (4 μL required per well). […] Add 4 uL Lysis buffer master mix to all wells with sample or DMSO. Centrifuge the plates for 1 minute at 1000 rpm. • c. Incubate at room temperature for 30 minutes. • 5. Prepared HTRF Antibody • a.
In general, IC50 refers to the midpoint of a concentration-inhibition curve. For `Cc1c(C(NC(=O)Nc2cnc(N)nc2)C(F)(F)F)oc2c(Br)cc(F)cc12` (single isomer, unassigned) [Compound 215, 1-(2-aminopyrimidin-5-yl)-3-[1-(7-bromo-5-fluoro-3-methyl-1-benzofuran-2-yl)-2,2,2-trifluoroethyl]urea], the IC50 lay in the range of 1000 to 5000 nM.

`Cc1c(C(NC(=O)Nc2cnc(N)nc2)C(F)(F)F)oc2c(C#N)cc(F)cc12` (single isomer, unassigned) [Compound 219, 1-(2-aminopyrimidin-5-yl)-3-[1-(7-cyano-5-fluoro-3-methyl-1-benzofuran-2-yl)-2,2,2-trifluoroethyl]urea]: the IC50 lay in the range of 1000 to 5000 nM.

`Cc1c(C(NC(=O)Nc2ccc(N)cc2)C(F)(F)F)oc2c(F)cc(F)cc12` (single isomer, unassigned) [Compound 221, 1-(4-aminophenyl)-3-(1-(5,7-difluoro-3-methylbenzofuran-2-yl)-2,2,2-trifluoroethyl)urea]: the IC50 lay within 1000 to 5000 nM.

Take `Cc1c(C(NC(=O)Nc2cnc(N3CCC3)nc2)C(F)(F)F)oc2c(F)cc(F)cc12` (single isomer, unassigned) [Compound 223, 1-(2-(azetidin-1-yl)pyrimidin-5-yl)-3-(1-(5,7-difluoro-3-methylbenzofuran-2-yl)-2,2,2-trifluoroethyl)urea]: the IC50 was less than 1000 nM.

Regarding `Cc1c(C(NC(=O)Nc2cnc(N3CC(F)C3)nc2)C(F)(F)F)oc2c(F)cc(F)cc12` (single isomer, unassigned) [Compound 225, 1-(1-(5,7-difluoro-3-methylbenzofuran-2-yl)-2,2,2-trifluoroethyl)-3-(2-(3-fluoroazetidin-1-yl)pyrimidin-5-yl)urea], the IC50 was in the range of 1000 to 5000 nM.

For `CNC(=O)c1ncc(NC(=O)N[C@H](c2oc3ccc(F)cc3c2C)C(C)C)cn1` [Compound 77, (S)-5-(3-(1-(5-fluoro-3-methylbenzofuran-2-yl)-2-methylpropyl)ureido)-N-methylpyrimidine-2-carboxamide], the IC50 was 1000 to 5000 nM.

As to `Cc1c([C@@H](NC(=O)Nc2cnc(C(N)=O)nc2)C(C)C)oc2ccc(F)cc12` [Compound 78, (S)-5-(3-(1-(5-fluoro-3-methylbenzofuran-2-yl)-2-methylpropyl)ureido)pyrimidine-2-carboxamide], the IC50 fell in the range of 1000 to 5000 nM.

As for `Cc1c([C@@H](NC(=O)Nc2cnc(N)nc2)C2(F)CC2)oc2ccc(F)cc12` [Compound 81, (R)-1-(2-aminopyrimidin-5-yl)-3-((5-fluoro-3-methylbenzofuran-2-yl)(1-fluorocyclopropyl)methyl)urea], the IC50 is less than 1000 nM.

Regarding `Cc1c([C@@H](NC(=O)Nc2cnc(N)nc2)C2(C)CC2)oc2ccc(F)cc12` [Compound 84, (S)-1-(2-aminopyrimidin-5-yl)-3-((5-fluoro-3-methylbenzofuran-2-yl)(1-methylcyclopropyl)methyl)urea], the IC50 was less than 1000 nM.

Take `Cc1c([C@@H](NC(=O)Nc2ncc(N)cn2)C(C)(C)C)oc2ccc(F)cc12` [Compound 86, (S)-1-(5-aminopyrimidin-2-yl)-3-(1-(5-fluoro-3-methylbenzofuran-2-yl)-2,2-dimethylpropyl)urea]: the IC50 was less than 1000 nM.

Take `Cc1c([C@@H](NC(=O)Nc2cnc(N3CC(O)C3)nc2)C(C)C)oc2ccc(F)cc12` [Compound 87, (S)-1-(1-(5-fluoro-3-methylbenzofuran-2-yl)-2-methylpropyl)-3-(2-(3-hydroxyazetidin-1-yl)pyrimidin-5-yl)urea]: the IC50 is less than 1000 nM.

For the compound `Cc1c([C@@H](NC(=O)Nc2cnc(N3CC(O)C3)nc2)C(F)(F)F)oc2ccc(F)cc12` [Compound 89, (R)-1-(2-(3-hydroxyazetidin-1-yl)pyrimidin-5-yl)-3-(2,2,2-trifluoro-1-(5-fluoro-3-methylbenzofuran-2-yl)ethyl)urea], the IC50 is less than 1000 nM.

Turning to `Cc1c([C@@H](NC(=O)Nc2cnc(N3CC(F)C3)nc2)C(F)(F)F)oc2ccc(F)cc12` [Compound 95, (R)-1-(2-(3-fluoroazetidin-1-yl)pyrimidin-5-yl)-3-(2,2,2-trifluoro-1-(5-fluoro-3-methylbenzofuran-2-yl)ethyl)urea], the IC50 is less than 1000 nM.

As to `Cc1c([C@@H](NC(=O)Nc2cnc(N3CC(C)(O)C3)nc2)C(C)C)oc2ccc(F)cc12` [Compound 96, (S)-1-(1-(5-fluoro-3-methylbenzofuran-2-yl)-2-methylpropyl)-3-(2-(3-hydroxy-3-methylazetidin-1-yl)pyrimidin-5-yl)urea], the IC50 was less than 1000 nM.

Consider `Cc1c([C@@H](NC(=O)Nc2cnc(N3CC(C)(O)C3)nc2)C(F)(F)F)oc2ccc(F)cc12` [Compound 98, (R)-1-(2-(3-hydroxy-3-methylazetidin-1-yl)pyrimidin-5-yl)-3-(2,2,2-trifluoro-1-(5-fluoro-3-methylbenzofuran-2-yl)ethyl)urea], for which the IC50 was less than 1000 nM.

As for `Cc1c([C@H](C)NC(=O)Nc2cnc(N)nc2)oc2ccc(F)cc12` [Compound 101, (S)-1-(2-aminopyrimidin-5-yl)-3-(1-(5-fluoro-3-methylbenzofuran-2-yl)ethyl)urea], the IC50 lay in the range of 1000 to 5000 nM.

As for `Cc1c([C@@H](NC(=O)Nc2ccc3c(c2)C(=O)OC3)C(C)C)oc2ccc(F)cc12` [Compound 102, 3-[(1S)-1-(5-fluoro-3-methyl-1-benzofuran-2-yl)-2-methylpropyl]-1-(3-oxo-1H-2-benzofuran-5-yl)urea], the IC50 is 1000 to 5000 nM.

Regarding `Cc1c([C@@H](NC(=O)Nc2ccc3c(c2)C(=O)N(C)C3)C(C)C)oc2ccc(F)cc12` [Compound 103], the IC50 fell in the range of 1000 to 5000 nM.

Take `CNC(=O)c1cc(NC(=O)N[C@H](c2oc3ccc(F)cc3c2C)C(C)C)ccc1OC` [Compound 104]: the IC50 was less than 1000 nM.

As to `Cc1c([C@@H](NC(=O)Nc2cccc(N3CCC3=O)c2)C(C)C)oc2ccc(F)cc12` [Compound 105], the IC50 lay within 1000 to 5000 nM.

Still in this assay, the particulars now being: read-out: T47D pAKT IC50; T47D.1 cells, pAKT (S473) HTRF, 1 hour.
Regarding `Cc1c(C(NC(=O)Nc2cnc(N3CC(O)C3)nc2)C(F)(F)F)oc2c(Cl)cc(F)cc12` (single isomer, unassigned) [Compound 200, 3-[1-(7-chloro-5-fluoro-3-methyl-1-benzofuran-2-yl)-2,2,2-trifluoroethyl]-1-[2-(3-hydroxyazetidin-1-yl)pyrimidin-5-yl] urea], the IC50 was less than 1000 nM.

For the compound `Cc1c(C(NC(=O)Nc2cnc(N3CC(C)(O)C3)nc2)C(F)(F)F)oc2c(Cl)cc(F)cc12` (single isomer, unassigned) [Compound 201, 1-(1-(7-chloro-5-fluoro-3-methylbenzofuran-2-yl)-2,2,2-trifluoroethyl)-3-(2-(3-hydroxy-3-methylazetidin-1-yl)pyrimidin-5-yl)urea], the IC50 is more than 5000 nM.

In the case of `Cc1c(C(NC(=O)Nc2cnc(N3CC(C)(O)C3)nc2)C(F)(F)F)oc2c(Cl)cc(F)cc12` (single isomer, unassigned) [Compound 202, 1-(1-(7-chloro-5-fluoro-3-methylbenzofuran-2-yl)-2,2,2-trifluoroethyl)-3-(2-(3-hydroxy-3-methylazetidin-1-yl)pyrimidin-5-yl)urea], the IC50 was less than 1000 nM.

Turning to `Cc1c(C(NC(=O)Nc2cnc(N)nc2)C(F)(F)F)oc2c(C)cc(F)cc12` (single isomer, unassigned) [Compound 213, 1-(2-aminopyrimidin-5-yl)-3-[2,2,2-trifluoro-1-(5-fluoro-3,7-dimethyl-1-benzofuran-2-yl)ethyl]urea], the IC50 was more than 5000 nM.

Turning to `Cc1c(C(NC(=O)Nc2cnc(N)nc2)C(F)(F)F)oc2c(C)cc(F)cc12` (single isomer, unassigned) [Compound 214, 1-(2-aminopyrimidin-5-yl)-3-[2,2,2-trifluoro-1-(5-fluoro-3,7-dimethyl-1-benzofuran-2-yl)ethyl]urea], the IC50 is less than 1000 nM.

Consider `Cc1c(C(NC(=O)Nc2cnc(N)nc2)C(F)(F)F)oc2c(Br)cc(F)cc12` (single isomer, unassigned) [Compound 216, 1-(2-aminopyrimidin-5-yl)-3-[1-(7-bromo-5-fluoro-3-methyl-1-benzofuran-2-yl)-2,2,2-trifluoroethyl]urea], for which the IC50 is less than 1000 nM.

For the compound `Cc1c(C(NC(=O)Nc2cnc(N)nc2)C(F)(F)F)oc2c(C3CC3)cc(F)cc12` (single isomer, unassigned) [Compound 217, 1-(2-aminopyrimidin-5-yl)-3-[1-(7-cyclopropyl-5-fluoro-3-methyl-1-benzofuran-2-yl)-2,2,2-trifluoroethyl]urea], the IC50 is more than 5000 nM.

On to `Cc1c(C(NC(=O)Nc2cnc(N)nc2)C(F)(F)F)oc2c(C3CC3)cc(F)cc12` (single isomer, unassigned) [Compound 218, 1-(2-aminopyrimidin-5-yl)-3-[1-(7-cyclopropyl-5-fluoro-3-methyl-1-benzofuran-2-yl)-2,2,2-trifluoroethyl]urea], for which the IC50 was less than 1000 nM.

As to `Cc1c(C(NC(=O)Nc2cnc(N)nc2)C(F)(F)F)oc2c(C#N)cc(F)cc12` (single isomer, unassigned) [Compound 220, 1-(2-aminopyrimidin-5-yl)-3-[1-(7-cyano-5-fluoro-3-methyl-1-benzofuran-2-yl)-2,2,2-trifluoroethyl]urea], the IC50 is less than 1000 nM.

Take `Cc1c(C(NC(=O)Nc2ccc(N)cc2)C(F)(F)F)oc2c(F)cc(F)cc12` (single isomer, unassigned) [Compound 222, 1-(4-aminophenyl)-3-(1-(5,7-difluoro-3-methylbenzofuran-2-yl)-2,2,2-trifluoroethyl)urea]: the IC50 is less than 1000 nM.

Regarding `Cc1c(C(NC(=O)Nc2cnc(N3CCC3)nc2)C(F)(F)F)oc2c(F)cc(F)cc12` (single isomer, unassigned) [Compound 224, 1-(2-(azetidin-1-yl)pyrimidin-5-yl)-3-(1-(5,7-difluoro-3-methylbenzofuran-2-yl)-2,2,2-trifluoroethyl)urea], the IC50 is 1000 to 5000 nM.

Regarding `Cc1c(C(NC(=O)Nc2cnc(N3CC(F)C3)nc2)C(F)(F)F)oc2c(F)cc(F)cc12` (single isomer, unassigned) [Compound 226, 1-(1-(5,7-difluoro-3-methylbenzofuran-2-yl)-2,2,2-trifluoroethyl)-3-(2-(3-fluoroazetidin-1-yl)pyrimidin-5-yl)urea], the IC50 was less than 1000 nM.
